This assay addresses recombinant GST-p110γ (human PI3Kγ residues 38-1102) (Homo sapiens, UniProt P48736). The assay can be described thus: in vitro kinase assay (Scintillation Proximity Assay), phosphate transfer from ATP to phosphatidylinositol. Conditions: 12.5 μM ATP in assay mix, 60 minutes at room temperature.

A word on the IC50: it is the concentration that gives 50% inhibition.

Chain of recombinant GST-p110γ (human PI3Kγ residues 38-1102) (P48736 38-1102): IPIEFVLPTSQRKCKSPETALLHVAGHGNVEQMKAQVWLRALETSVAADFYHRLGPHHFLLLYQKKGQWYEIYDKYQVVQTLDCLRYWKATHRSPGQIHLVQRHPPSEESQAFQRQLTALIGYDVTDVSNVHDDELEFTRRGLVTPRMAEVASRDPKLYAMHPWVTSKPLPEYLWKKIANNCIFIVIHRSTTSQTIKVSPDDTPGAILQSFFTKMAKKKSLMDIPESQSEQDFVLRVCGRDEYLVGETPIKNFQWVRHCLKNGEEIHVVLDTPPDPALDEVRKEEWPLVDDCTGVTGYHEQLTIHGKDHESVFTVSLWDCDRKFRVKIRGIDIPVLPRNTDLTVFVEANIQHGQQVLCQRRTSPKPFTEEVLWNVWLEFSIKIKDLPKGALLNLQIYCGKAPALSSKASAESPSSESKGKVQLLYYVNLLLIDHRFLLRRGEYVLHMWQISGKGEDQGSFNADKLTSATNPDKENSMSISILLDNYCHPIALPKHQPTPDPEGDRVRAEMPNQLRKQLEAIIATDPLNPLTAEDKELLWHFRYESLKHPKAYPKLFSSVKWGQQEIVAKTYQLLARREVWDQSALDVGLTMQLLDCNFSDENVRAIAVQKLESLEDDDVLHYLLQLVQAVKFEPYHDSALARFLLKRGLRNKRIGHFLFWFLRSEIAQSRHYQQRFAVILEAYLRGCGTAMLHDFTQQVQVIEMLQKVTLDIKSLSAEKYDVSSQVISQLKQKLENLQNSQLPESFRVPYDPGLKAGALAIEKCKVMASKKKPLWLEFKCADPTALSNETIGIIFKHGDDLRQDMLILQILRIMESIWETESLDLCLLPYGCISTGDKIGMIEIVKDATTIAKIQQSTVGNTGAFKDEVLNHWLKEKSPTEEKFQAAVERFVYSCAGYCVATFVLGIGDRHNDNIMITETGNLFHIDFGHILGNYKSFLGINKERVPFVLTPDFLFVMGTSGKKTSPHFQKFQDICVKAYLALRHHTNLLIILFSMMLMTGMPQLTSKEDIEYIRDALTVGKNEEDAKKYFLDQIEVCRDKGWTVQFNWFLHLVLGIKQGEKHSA
Method: An in vitro kinase assay was established that measures the transfer of the terminal phosphate of adenosine triphosphate to phosphatidylinositol. The kinase reaction is performed in a white 96 well microtitre plate as a Scintillation Proximity Assay. […] The reaction is started by the addition of 20 μl of enzyme mix (40 mM Tris, 200 mM NaCl, 2 mM EGTA containing recombinant GST-p110γ).

As to `CC(=O)c1ccc(-c2sc(NC(=O)NCCc3cn(CCF)cn3)nc2C)cc1` [Example 5], the IC50 was 110 nM.

These data come from US7754746B2, “Organic compounds” (Novartis AG, priority 2005, dated 2010).
